Data published in the CheMixHub viscosity set.
± gives the uncertainty stated by the source.

Assay: xn = mol fraction of the nth substance listed
Settings: 100 kPa

SMILES: CC[NH+](C)CC.[Br-] + O
- viscosity (298.15 K, x1 = 0.016): 1.149 ± 0.069 mPa·s
- viscosity (298.15 K, x1 = 0.0229): 1.243 ± 0.075 mPa·s
- viscosity (298.15 K, x1 = 0.0355): 1.458 ± 0.088 mPa·s
- viscosity (298.15 K, x1 = 0.0793): 2.422 ± 0.15 mPa·s
- viscosity (298.15 K, x1 = 0.0986): 3.011 ± 0.18 mPa·s
- viscosity (298.15 K, x1 = 0.1267): 4.05 ± 0.24 mPa·s
- viscosity (298.15 K, x1 = 0.1508): 5.154 ± 0.31 mPa·s
- viscosity (298.15 K, x1 = 0.1806): 6.655 ± 0.4 mPa·s
- viscosity (298.15 K, x1 = 0.2148): 9.109 ± 0.55 mPa·s
- viscosity (298.15 K, x1 = 0.2422): 11.37 ± 0.69 mPa·s
- viscosity (298.15 K, x1 = 0.2866): 15.38 ± 0.94 mPa·s
- viscosity (298.15 K, x1 = 0.3332): 21.46 ± 1.3 mPa·s
- viscosity (298.15 K, x1 = 0.4014): 33.72 ± 2.1 mPa·s
- viscosity (303.15 K, x1 = 0.016): 1.026 ± 0.062 mPa·s
- viscosity (303.15 K, x1 = 0.0229): 1.107 ± 0.067 mPa·s
- viscosity (303.15 K, x1 = 0.0355): 1.295 ± 0.078 mPa·s
- viscosity (303.15 K, x1 = 0.0793): 2.124 ± 0.13 mPa·s
- viscosity (303.15 K, x1 = 0.0986): 2.633 ± 0.16 mPa·s
- viscosity (303.15 K, x1 = 0.1267): 3.504 ± 0.21 mPa·s
- viscosity (303.15 K, x1 = 0.1508): 4.438 ± 0.27 mPa·s
- viscosity (303.15 K, x1 = 0.1806): 5.646 ± 0.34 mPa·s
- viscosity (303.15 K, x1 = 0.2148): 7.787 ± 0.47 mPa·s
- viscosity (303.15 K, x1 = 0.2422): 9.636 ± 0.59 mPa·s
- viscosity (303.15 K, x1 = 0.2866): 12.8 ± 0.78 mPa·s
- viscosity (303.15 K, x1 = 0.3332): 17.54 ± 1.1 mPa·s
- viscosity (303.15 K, x1 = 0.4014): 26.93 ± 1.7 mPa·s
- viscosity (308.15 K, x1 = 0.016): 0.925 ± 0.056 mPa·s
- viscosity (308.15 K, x1 = 0.0229): 0.996 ± 0.06 mPa·s
- viscosity (308.15 K, x1 = 0.0355): 1.162 ± 0.07 mPa·s
- viscosity (308.15 K, x1 = 0.0793): 1.882 ± 0.11 mPa·s
- viscosity (308.15 K, x1 = 0.0986): 2.318 ± 0.14 mPa·s
- viscosity (308.15 K, x1 = 0.1267): 3.07 ± 0.19 mPa·s
- viscosity (308.15 K, x1 = 0.1508): 3.862 ± 0.23 mPa·s
- viscosity (308.15 K, x1 = 0.1806): 4.861 ± 0.3 mPa·s
- viscosity (308.15 K, x1 = 0.2148): 6.643 ± 0.4 mPa·s
- viscosity (308.15 K, x1 = 0.2422): 8.251 ± 0.5 mPa·s
- viscosity (308.15 K, x1 = 0.2866): 10.79 ± 0.66 mPa·s
- viscosity (308.15 K, x1 = 0.3332): 14.61 ± 0.89 mPa·s
- viscosity (308.15 K, x1 = 0.4014): 21.98 ± 1.3 mPa·s
- viscosity (313.15 K, x1 = 0.016): 0.841 ± 0.051 mPa·s
- viscosity (313.15 K, x1 = 0.0229): 0.903 ± 0.055 mPa·s
- viscosity (313.15 K, x1 = 0.0355): 1.051 ± 0.064 mPa·s
- viscosity (313.15 K, x1 = 0.0793): 1.681 ± 0.1 mPa·s
- viscosity (313.15 K, x1 = 0.0986): 2.061 ± 0.12 mPa·s
- viscosity (313.15 K, x1 = 0.1267): 2.707 ± 0.16 mPa·s
- viscosity (313.15 K, x1 = 0.1508): 3.379 ± 0.2 mPa·s
- viscosity (313.15 K, x1 = 0.1806): 4.22 ± 0.26 mPa·s
- viscosity (313.15 K, x1 = 0.2148): 5.74 ± 0.35 mPa·s
- viscosity (313.15 K, x1 = 0.2422): 7.129 ± 0.43 mPa·s
- viscosity (313.15 K, x1 = 0.2866): 9.194 ± 0.56 mPa·s
- viscosity (313.15 K, x1 = 0.3332): 12.29 ± 0.75 mPa·s
- viscosity (313.15 K, x1 = 0.4014): 18.17 ± 1.1 mPa·s
- viscosity (318.15 K, x1 = 0.016): 0.771 ± 0.047 mPa·s
- viscosity (318.15 K, x1 = 0.0229): 0.825 ± 0.05 mPa·s
- viscosity (318.15 K, x1 = 0.0355): 0.955 ± 0.058 mPa·s
- viscosity (318.15 K, x1 = 0.0793): 1.513 ± 0.092 mPa·s
- viscosity (318.15 K, x1 = 0.0986): 1.843 ± 0.11 mPa·s
- viscosity (318.15 K, x1 = 0.1267): 2.389 ± 0.14 mPa·s
- viscosity (318.15 K, x1 = 0.1508): 2.988 ± 0.18 mPa·s
- viscosity (318.15 K, x1 = 0.1806): 3.695 ± 0.22 mPa·s
- viscosity (318.15 K, x1 = 0.2148): 5.002 ± 0.3 mPa·s
- viscosity (318.15 K, x1 = 0.2422): 6.196 ± 0.38 mPa·s
- viscosity (318.15 K, x1 = 0.2866): 7.919 ± 0.48 mPa·s
- viscosity (318.15 K, x1 = 0.3332): 10.49 ± 0.64 mPa·s
- viscosity (318.15 K, x1 = 0.4014): 15.2 ± 0.93 mPa·s
- viscosity (323.15 K, x1 = 0.016): 0.712 ± 0.043 mPa·s
- viscosity (323.15 K, x1 = 0.0229): 0.759 ± 0.046 mPa·s
- viscosity (323.15 K, x1 = 0.0355): 0.873 ± 0.053 mPa·s
- viscosity (323.15 K, x1 = 0.0793): 1.368 ± 0.083 mPa·s
- viscosity (323.15 K, x1 = 0.0986): 1.658 ± 0.1 mPa·s
- viscosity (323.15 K, x1 = 0.1267): 2.142 ± 0.13 mPa·s
- viscosity (323.15 K, x1 = 0.1508): 2.658 ± 0.16 mPa·s
- viscosity (323.15 K, x1 = 0.1806): 3.267 ± 0.2 mPa·s
- viscosity (323.15 K, x1 = 0.2148): 4.39 ± 0.27 mPa·s
- viscosity (323.15 K, x1 = 0.2422): 5.432 ± 0.33 mPa·s
- viscosity (323.15 K, x1 = 0.2866): 6.897 ± 0.42 mPa·s
- viscosity (323.15 K, x1 = 0.3332): 9.032 ± 0.55 mPa·s
- viscosity (323.15 K, x1 = 0.4014): 12.89 ± 0.79 mPa·s
